Source: ChEMBL document CHEMBL1201862, “PubChem BioAssay data set” (2004)
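Following 48 hours of exposure in 96-well plates, responses at five concentrations were used to interpolate endpoints linearly. Abbreviation: GI50, concentration required for 50% inhibition of growth.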 Calls of active or inactive are those of the source. No stated cut-off is given here; in the data, active = GI50 up to about 1.1 µM and inactive = higher.

Assays:
Experiment in all cases: DTP human tumour cell line panel, 48 h
MDA-N = test system: MDA-N
DU-145 = test system: DU-145
MDA-MB-231 = test system: MDA-MB-231
DLD-1 = test system: DLD-1
XF498 = test system: XF498
RXF 631 = test system: RXF 631
BT-549 = test system: BT-549
SNB-78 = test system: SNB-78
HOP-18 = test system: HOP-18

Measured: GI50

CC(=O)C1=C(C)NC(=C(C#N)C#N)C(C#N)=C1
inactive: MDA-N > 100 µM | DU-145 > 100 µM | MDA-MB-231 > 100 µM

CC(C)OP(=O)(OC(C)C)/C(=N/Nc1ccc([N+](=O)[O-])cc1)Nc1ccc(N/C(=N\Nc2ccc([N+](=O)[O-])cc2)P(=O)(OC(C)C)OC(C)C)cc1
inactive: DLD-1 4.72 µM | XF498 > 100 µM

COC(=O)C(NC(=O)c1ccccc1)C(c1c(O)cc(O)cc1O)P(=O)(OC)OC (stereo unspecified)
inactive: RXF 631 > 100 µM | DLD-1 > 100 µM | XF498 > 100 µM

O=C(O)c1ccccc1CN1CCCC(C(=O)O)C1 (stereo unspecified)
inactive: MDA-N > 100 µM | BT-549 > 100 µM | DU-145 > 100 µM | MDA-MB-231 > 100 µM

COC(=O)C1=C(C(=O)OC)C23CC1C1C(C(=O)OC)=C(C(=O)OC)C12C1C=CC3C2C(=O)OC(=O)C21 (stereo unspecified)
inactive: RXF 631 71.6 µM | DLD-1 76.9 µM | XF498 45.9 µM | SNB-78 24.2 µM

NC(=O)SCC(=O)Nc1ccc2ncccc2c1
inactive: MDA-N 61.5 µM | BT-549 74.5 µM | MDA-MB-231 > 100 µM

COC(=O)CCC(=O)c1ccc2c(c1)CCC2
inactive: MDA-N > 100 µM | DU-145 > 100 µM | MDA-MB-231 > 100 µM

O=C1C[C@@H]2[C@@H](C=CC23CCCC3)N1O
inactive: HOP-18 > 100 µM | DLD-1 > 100 µM | SNB-78 > 100 µM

N#CCCN(CCC#N)c1ccc(C(=N/c2ccc(Cl)cc2)/N=N/c2ccc(Cl)cc2)cc1
inactive: MDA-N 19.5 µM | BT-549 14 µM | DU-145 15.5 µM | MDA-MB-231 19.5 µM

CCCCNC(=S)Nc1nc(C(=O)NNC(=S)NC2CCCCC2)cs1
inactive: MDA-N > 100 µM | BT-549 > 100 µM | DU-145 > 100 µM | MDA-MB-231 > 100 µM

ClCCCN1CCN(CCCl)CC1
inactive: HOP-18 > 553 µM | MDA-N 191 µM | DLD-1 167 µM | XF498 46.3 µM | BT-549 124 µM | DU-145 57.3 µM | MDA-MB-231 324 µM | SNB-78 135 µM

Cc1ccn2c(=O)cc(-c3ccccc3)nc2c1
inactive: MDA-N > 100 µM | BT-549 > 100 µM | DU-145 > 100 µM | MDA-MB-231 > 100 µM

O=S(O)CCCCCSSSCCCCCS(=O)O
inactive: DLD-1 35.4 µM | XF498 5.32 µM | SNB-78 45.6 µM

O=S(=O)(N=S(c1ccccc1)c1ccccc1)c1ccccc1
inactive: BT-549 > 100 µM | DU-145 > 100 µM

Oc1c(C(Nc2cccc3cccnc23)c2ccccc2)ccc2cccnc12 (stereo unspecified)
inactive: HOP-18 4.78 µM

NC(CCCCO)C(=O)O (stereo unspecified)
inactive: BT-549 > 100 µM | DU-145 > 100 µM | MDA-MB-231 > 100 µM

N#Cc1c(N)nc(Nc2cccc3ccccc23)c(C#N)c1C#N
inactive: MDA-N 1.84 µM | DU-145 > 10 µM | MDA-MB-231 3.73 µM

Cc1ccc(-c2n[nH]c(=O)n2/N=C\c2ccccc2)cc1
inactive: MDA-N 51.1 µM | BT-549 10.1 µM | DU-145 > 94.2 µM | MDA-MB-231 60.5 µM
